# Values quoted from earlier work as cited in patent US20140154783A1, “BIOPROCESSING” (priority 2009, published 2014).
# Tests used:
# [1] = test system: influenza A (avian plague virus); settings: high concentrations; chick embryo fibroblasts infected with influenza A (avian plague virus); Klenk et al. 1972
# neuraminidase = settings: influenza-infected MDCK cells; Barrere et al. 1997; read-out: Ki, reversible inhibition of neuraminidase
SMILES,"formation of hemagglutinin, neuraminidase, and mature virions [1]",Ki (neuraminidase)
O=CC[C@@H](O)[C@H](O)[C@H](O)CO [2-deoxy-D-glucose],inhibited,–
COc1cc(C(F)F)ccc1OC1(C(=O)O)CC(O)C(NC(C)=O)C(C(O)C(O)CO)O1 (stereo not drawn) [4-difluoromethyl-2-methoxy-phenyl-α-ketoside of N-acetylneuraminic acid],–,80 µM
N[C@H]1C(O)O[C@H](CO)[C@@H](O)[C@@H]1O (stereo partly drawn) [D-glucosamine],inhibited,–
